Experiments:
[1] = test system: TNF-α production; test: Inhibitory activity against cytokine (TNF-α) production in LPS-stimulated RAW264.7 cells; assay type: cell-based, mouse; settings: Mus musculus, RAW264.7, 15 h, 1 μM test compound, LPS 10 ng/mL
Experimental: The mouse monocyte/macrophage cell line, RAW264.7 (ATCC TIB71) was purchased from Dainippon Pharmaceutical Co., Ltd. The RAW264.7 cells were cultured in a CO2 incubator (37° C., 95% of humidity, 5% of CO2) by using the Dulbecco's modified Eagle's medium (DMEM medium; GIBCO, Cat. No. 11995-040) containing bovine fetal serum (the final concentration: 10% (v/v), MOREGATE, lot No. 474030), penicillin G (the final concentration: 50 units/mL […], GIBCO) and streptomycin (the final concentration: 20 μg/mL, GIBCO).
Sixty (60) μL of the RAW264.7 cell suspension (83,000 cells/mL) were plated into each well of a 96-well microplate (5,000 cells/well). After the cells were cultured for 4 hr in a CO2 incubator, 40 μL of DMEM medium containing 25 ng/mL of LPS (Sigma-Aldrich Japan K. K.) were added into each well (final concentration of LPS: 10 ng/mL). The test compound dissolved in DMSO at a concentration of 1 mM was diluted with DMEM medium by 20 times. Then 2 μL/well of the diluted solution were added to wells containing the plated cells (final concentration of the test compound: 1 μM). As the control, 2 μL/well of DMSO diluted with DMEM medium by 20 times were added to wells containing the plated cells either with LPS (final concentration: 10 ng/mL) or without LPS. After these cells were cultured in a CO2 incubator for 15 hr, the supernatant of the medium was recovered. The amount of mTNF-α in the medium supernatant was determined with a mouse TNF-α ELISA kit Quantikine M (R&D System), according to the experiment protocol attached with the kit.
The inhibitory activity of the test compound against TNF-α production was calculated according to the following equation.
A: The amount of TNF-α in the presence of test compound
B: The amount of TNF-α in the control without LPS
C: The amount of TNF-α in the control with 10 ng/mL of LPS
Inhibitory Activity of the Test Compound against TNF-α Production (%)=100−(A−B)/(C−B)×100

[2] = test system: Rat white adipocytes; test: Stimulation of differentiation of the adipocytes (Oil Red O); assay type: cell-based; settings: Rattus norvegicus, Adipocyte, 120 h, 100 nM test compound; 5 days; Oil Red O ABS550; control = 100%, blank = 0%; Table 7; read-out: Rate of Differentiation (%)
Outline: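 Oil Red O lipid staining, absorbance 550 nm after DMSO extraction, quantified differentiation of rat white adipocytes exposed 5 days to compound (final 100 nM, 0.1% DMSO) in differentiation medium. Percent differentiation normalised between cell-free blank (0%) and DMSO control (100%).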

[3] = test system: Mouse preadipocyte strain 3T3-L1; test: Inhibition of differentiation as an indication of acetic acid uptake; assay type: cell-based; settings: control (0.01% dimethylsulfoxide) = 100%; for activity at 0.1 µM: Mus musculus, 3T3-L1, 0.1 μM test substance, read-out: Rate of Uptake (%) of [2-14C] acetic acid
Outline: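 Differentiation is indexed by 1 hr [2-14C]acetic acid incorporation, measured by scintillation counting and given as uptake relative to 0.01% DMSO control (100%). Mouse 3T3-L1 preadipocytes, pre-grown 10 days, received 0.1 μM test substance throughout a 4-day insulin/IBMX/dexamethasone induction, followed by 2 days' maintenance culture.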

[4] = target: T1, human PPAR γ 2 (Homo sapiens, UniProt P37231); test: PPAR γ transcriptional activity, luciferase reporter, test compound alone; assay type: cell-based; settings: concentration indicating Emax/2, MG63 cells transfected with pSG5-hPPARg and pGV-P2-PPRE, 24 hr
T1 construct: expressed in transfected cells; host or cells: human osteosarcoma MG63, transiently co-transfected with pSG5-hPPARg and the reporter pGV-P2-PPRE
T1 sequence (P37231 1-505): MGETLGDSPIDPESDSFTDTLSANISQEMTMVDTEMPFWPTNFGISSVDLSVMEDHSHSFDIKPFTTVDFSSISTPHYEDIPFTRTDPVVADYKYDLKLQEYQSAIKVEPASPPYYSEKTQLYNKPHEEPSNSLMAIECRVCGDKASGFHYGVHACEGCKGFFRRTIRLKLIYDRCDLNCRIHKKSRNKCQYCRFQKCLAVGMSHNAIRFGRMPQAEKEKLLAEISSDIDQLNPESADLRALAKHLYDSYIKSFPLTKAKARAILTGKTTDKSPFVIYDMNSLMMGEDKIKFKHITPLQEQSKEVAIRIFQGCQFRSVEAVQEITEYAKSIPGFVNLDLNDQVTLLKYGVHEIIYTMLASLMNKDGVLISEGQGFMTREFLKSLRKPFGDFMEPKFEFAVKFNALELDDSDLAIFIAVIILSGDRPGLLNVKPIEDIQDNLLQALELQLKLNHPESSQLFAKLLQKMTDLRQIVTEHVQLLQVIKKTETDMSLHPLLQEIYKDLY
Experimental: The primers of the polymerase chain reaction (hereinafter “PCR”) were designed according to the gene sequence of human PPAR γ 2 (GenBANK accession No. D83233). In order to insert the genes into the BamHI site of the plasmid pSG5 ([…] CLONING SYSTEMS), Bgl II sites were added upstream and downstream of the genes encoding human PPAR γ 2 protein. For this, 2 kinds of polynucleotides shown in the sequence numbers 1 and 2 in the sequence table described below (hereinafter “S1” and “AS1”, respectively) were used as PCR primers.
In order to determine transcriptional activity via PPAR γ, 2 kinds of polynucleotides represented in sequence numbers 3 and 4 in the sequence table described below (hereinafter “S2” and “AS2”, respectively) were used for construction of the reporter plasmid having PPAR responsive element. The DNA fragment inserted was designed based on the gene sequence in the promoter region of rat acylCo-A oxidase (J. D. Tugwood, EMBO J., 11 (2), pp433-439 (1992)). For insertion of the DNA fragment into the reporter plasmid pGV-P2 (TOYO INK MFG CO., LTD), a NheI site and an XhoI site were added to the S2 and AS2, respectively.
Using cDNA library (Clontech) derived from human adipose tissue as a template, DNA oligomers S1 and AS1 that were synthesized in the procedure 1 as primers and Ex-Taq™ (TAKARA BIO INC.) as a thermostable DNA polymerase-PCR was carried out. As a result of the PCR, the c.a. 1500 bps DNA fragments were amplified. Each cycle consisted of incubation at 94° C. for 1 min for denaturation of the template, then at 55° C. for 30 sec for annealing of DNA oligomers the PCR primer, and then at 72° C. for 30 sec for extension of the chain. The obtained DNA fragments with approximately 1500 base pairs were digested at the Bgl II sites and were inserted into BamHI sites of pSG5. Thus a human PPAR γ expression plasmid named pSG5-hPPAR g was obtained. The nucleotide sequence of the inserted DNA fragment was confirmed to be identical sequence to the human PPAR γ 2 reported by the dideoxy method.
Vector pGV-P2 digestion products was prepared by digestion using the restriction enzymes, NheI and XhoI, and purified by 1.0% agarose-gel electrophoresis. The DNA oligomers, S2 and AS2 obtained in Procedure 2, were mixed together and were incubated in a hot bath at 94° C. for 1 min. After the annealing was partially broken, they were further incubated at 25° C. for 1 hr. Thus double-stranded DNA with annealing of S2 and AS2 was formed. Then, the terminus of the double-stranded DNA with annealing of S2 and AS2 was phosphorylated with DNA polynucleotide kinase (TOYOBO CO., LTD). After that, it was ligated to the pGV-P2 digestion products which were prepared previously using the NheI site and XhoI site. Thus the reporter plasmid pGV-P2-PPRE was obtained.
Using the plasmid obtained by the procedures 3 and 4, transformation of Escherichia coli HB-101 strain was carried out by conventional methods. HB-101 strain having the plasmid was incubated in L-broth medium (containing 10 g of trypton (Difco), 5 g of yeast extract (Difco), 5 g of sodium chloride in 1 L of aqueous solution) containing 100 μg/ml of ampicillin at 37° C. for 17 hrs. Then, each plasmid was purified by the alkaline-SDS method and employed for the gene transfection to mammalian cells. After mixing the pSG5-hPPARg, PGV-P2-PPRE and LipofectAMINE reagent (GIBCO BRL), the human osteosarcoma MG63 was transiently transfected. Then the cells were recovered. The recovered cells were plated on a 96-well plate so as to be 30,000 cells/well and cultured in a CO2 incubator (NAPCO) at 37° C. for 24 hr under the condition of 5% CO2, 95%-RH.
Various concentrations of the test compound alone were added to culturing medium of the cells prepared in the Procedure 5. After 24 hr of culturing, LT2.0 (TOYO INK MFG CO., LTD), a luciferase substrate, was added to the medium free culture plate. […]

[5] = test system: Rat white adipocytes; test: Inhibition of the differentiation of adipocytes (Oil Red O); assay type: cell-based; settings: Rattus norvegicus, Adipocyte, 120 h, 100 nM test compound; 5 days; Oil Red O ABS550; control = 100%, blank = 0%; Table 3; read-out: Rate of Differentiation (%)
Outline: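 Rat white preadipocytes, 5,000 cells/well, given differentiation medium with compound at 100 nM final (0.1% DMSO) for 5 days at 37 °C. Lipid stained with Oil Red O, eluted in DMSO, read at 550 nm; differentiation % relative to DMSO control (100%) and blank (0%).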

EC50 [4] [nM]	SMILES	inhibition at 1 µM [1] [%]	activity at 0.1 µM [2] [%]	activity at 0.1 µM [3] [%]	Rate of Uptake (%) of [2-14C] acetic acid ([3]; 0.1 μM test substance) [%]	activity at 0.1 µM [5] [%]
–	CCc1ccc(NC(=O)c2cc([N+](=O)[O-])ccc2Cl)cc1 [Example 12, N-(4-Ethylphenyl)-(2-chloro-5-nitrophenyl)carboxamide]	21.8	120	66.4	–	–
–	CCc1ccccc1NC(=O)c1cc([N+](=O)[O-])ccc1Cl [Example 13, N-(2-Ethylphenyl)-(2-chloro-5-nitrophenyl)carboxamide]	16.2	127	93	–	–
–	O=C(Nc1nc2ccc(Cl)cc2s1)c1cc([N+](=O)[O-])ccc1Cl [Example 68, N-(6-Chlorobenzothiazol-2-yl)-(2-chloro-5-nitrophenyl)carboxamide]	15.2	116	67.9	–	–
5.1	Cc1cnc(NC(=O)c2cc([N+](=O)[O-])ccc2Cl)c(C)c1 [Example 74, N-(3,5-Dimethylpyriridin-2-yl)-(2-chloro-5-nitrophenyl)carboxamide]	–	–	–	70.4	–
120	COC(=O)c1cscc1NC(=O)c1cc([N+](=O)[O-])ccc1Cl [Example 76, N-(4-Methoxycarbonylthiophen-3-yl)-(2-chloro-5-nitrophenyl)carboxamide]	–	–	54.3	–	–
68	CCOC(=O)c1c(NC(=O)c2cc([N+](=O)[O-])ccc2Cl)sc2c1CCCC2 [Example 79, N-[3-Carboethoxy-4,5,6,7-tetrahydrobenzo[b]thiophen-2-yl]-(2-chloro-5-nitrophenyl)carboxamide]	–	–	41.5	–	–
8.8	O=C(Nc1ccc(S(=O)(=O)Nc2ccc3cn[nH]c3c2)cc1)c1cc([N+](=O)[O-])ccc1Cl [Example 103]	–	–	72.1	–	–
88	CCCCNC(=O)NS(=O)(=O)c1ccc(NC(=O)c2cc([N+](=O)[O-])ccc2Cl)cc1 [Example 107, N-[4-(Butylaminocarbonylaminosulfonyl)phenyl]-(2-chloro-5-nitrophenyl)carboxamide]	–	–	71.3	–	–
–	O=C(Nc1ccc(NC(=O)c2cc([N+](=O)[O-])ccc2Cl)cc1)c1cccnc1 [Example 123, N-[4-(Pyridin-3-ylcarbonylamino)phenyl]-(2-chloro-5-nitrophenyl)carboxamide]	15.1	148	96.2	–	–
–	CC(=O)Oc1ccc(-c2ccc(NC(=O)c3cc([N+](=O)[O-])ccc3Cl)cc2)cc1 [Example 134, N-[4-(4-Acetoxyphenyl)phenyl]-(2-chloro-5-nitrophenyl)carboxamide]	16.4	120	–	–	–
31	O=C(Nc1ccc(O)cc1)c1cc([N+](=O)[O-])ccc1Cl [Example 193, N-(4-Hydroxyphenyl)-(2-chloro-5-nitrophenyl)carboxamide]	–	–	–	–	62.4
–	O=C(NCc1ccccc1)Nc1ccc(-c2ccc(NC(=O)c3cc([N+](=O)[O-])ccc3Cl)cc2)cc1 [Example 248, N-[4-[4-(Benzylaminocarbonylamino)phenyl]phenyl]-(2-chloro-5-nitrophenyl)carboxamide]	19.1	–	–	–	64.4
–	Nc1cccc(-c2csc(NC(=O)c3cc([N+](=O)[O-])ccc3Cl)n2)c1 [Example 253, N-[4-(3-Aminophenyl)thiazol-2-yl]-(2-chloro-5-nitrophenyl)carboxamide]	29	–	–	–	55.7

From patent US20030134859A1 (SANKYO COMPANY, LIMITED, priority 2000, published 2003)
